In US20240368351A1, “FACTORS CONTROLLING DRUG RELEASE IN CROSS-LINKED POLY(VALEROLACTONE) BASED MATRICES” (Pendant Biosciences, Inc., priority 2019, published 2024):
Values after ≈ are worked out from the molar mass of the structure shown.

Experiments:
[1] = In vitro drug release from cross-linked matrices (CPs), sample-and-separate, with mathematical modeling (Fick diffusion); assay type: physicochemical; conditions: for cumulative release from the drug-loaded crosslinked copolymer: embodiment statement
Protocol: Evaluation of in vitro drug release: impact of the nature of the drug, polymer and release media: In the in vitro release studies the impact of a number of variables was evaluated including nature of the drug, compatibility between the drug and the polymer matrix, degree of crystallinity of the matrix, M.W. of the copolymer, cross-linking density and the composition of the release media. The commonly used, sample-and-separate method was employed to evaluate drug release from the cross-linked matrices. D'Souza, S. S.; DeLuca, P. P. Methods to Assess in vitro Drug Release from Injectable Polymeric Particulate Systems. Pharmaceutical Research 2006, 23, 3, 460-474.
The Peppas-Sahlin model, where diffusion and polymer relaxation are known to be the underlying drivers of drug release provided the best fit in terms of R^2adjusted (FIGS. 8A and 8C) For cylindrical shaped matrices, Fickian diffusion is considered to be operative when the ratio of diameter to thickness (n or m) of the matrix is equal to or less than 0.45. If the value is […], the drug release mechanism is considered non-Fickian; whereas, if n is 0.89 drug release is considered to be case II transport. Herein, the dimension and the geometry of the matrices evaluated have a value of 0.78<n<0.80. […]
Protocols for drug analysis by HPLC and cytotoxicity evaluation of the cross-linked matrices: The drug release was analyzed by reverse phase HPLC using an Agilent 1200 HPLC system with Agilent ChemStation software, an XDB C18 column (150×4.6 mm i.d+guard column) and UV detection. […] Drug concentrations were quantified using calibration curves using standards that ranged in concentration from 1 to 100 μg/ml (0.9986≤R^2≤1).
The CPs were incubated at 37° C. under constant stirring and at pre-determined time points, a 1 ml aliquout was removed and replaced with 1 mL of fresh media and the samples were immediately frozen at −20° C. for storage prior to HPLC analysis. […] The drug was reconstituted in 1 ml of the HPLC mobile phase and analyzed to correct the DLC and release curves. […]

[2] = Drug solubility in different release media (PBS with Tween 80 or SDS); assay type: physicochemical; conditions: for solubility at 48 h: release media (PBS with Tween 80 or SDS), 37 °C, pH 7.4, aqueous with cosolvent or surfactant or cyclodextrin, thermodynamic from solid
Protocol: Mikkelsen, L. M., Enzyme solubility in liquid detergent and use of detergent composition. […] Crotts, G.; Park, T. G. Protein delivery from poly(lactic-co-glycolic acid) biodegradable microspheres: Release kinetics and stability issues. […] FDA.
The solutions were centrifuged at 8000 rpm for 10 minutes, and a 1 ml aliquot was withdrawn, filtered through a 0.45 μm nylon membrane, and analyzed by HPLC.

[3] = logP (octanol-water partition) by shake tube method; assay type: physicochemical
[4] = Stability of Drug X freebase in PBS with or without SDS by HPLC; assay type: physicochemical
Excerpt: The appearance of second peak correlates with concentration of the drug.

[5] = Solubility of Drug X in organic solvents and water; assay type: physicochemical
[6] = cited from earlier work
[7] = PBS with SDS, 120 μg/ml, 2 days
[8] = PBS with SDS, 120 μg/ml, 3 days
[9] = PBS with SDS, 120 μg/ml, 4 days

## CC(=O)Nc1ccc(O)cc1 [Acetaminophen, acetaminophen]
[1]; from all matrices, PBS with 0.5% SDS, 37° C.
  period of release: less than a week

## COc1cc(/C=C/C(=O)CC(=O)/C=C/c2ccc(O)c(OC)c2)ccc1O [Curcumin, curcumin]
[2]
  solubility at 48 h: 45.6 ± 1.05 µg/mL (≈ 124 µM)
[3]
  Calculated LogP: 3

## CC(C)OC(=O)[C@H](C)N[P@](=O)(CO[C@H](C)Cn1cnc2c(N)ncnc21)Oc1ccccc1 [Drug X freebase]
[4]; PBS with 0.5% SDS
  area of the HPLC peak corresponding to Drug X freebase as a function of time: constantly decreased as a function of time
[4]; PBS with SDS, 12 μg/ml, 1 hr
  Area (Drug X freebase peak): 191.5
[4]; PBS with SDS, 12 μg/ml, 3 hrs
  Area (Drug X freebase peak): 185.7
[4]; PBS with SDS, 12 μg/ml, 7 hrs
  Area (Drug X freebase peak): 182.8
[4]; PBS with SDS, 12 μg/ml, 1 day
  Area (Drug X freebase peak): 179.2
[4]; PBS with SDS, 12 μg/ml, 2 days
  Area (Drug X freebase peak): 178.7
[4]; PBS with SDS, 12 μg/ml, 3 days
  Area (Drug X freebase peak): 155.2
[4]; PBS with SDS, 12 μg/ml, 4 days
  Area (Drug X freebase peak): 155.8
[4]; PBS with SDS, 12 μg/ml, T = 0
  Area (Drug X freebase peak): 192.6
[4]; PBS with SDS, 60 μg/ml, 1 hr
  Area (2nd) second peak: (99.6)
  Area (Drug X freebase peak): 934.7
[4]; PBS with SDS, 60 μg/ml, 3 hrs
  Area (2nd) second peak: (85.18)
  Area (Drug X freebase peak): 909.05
[4]; PBS with SDS, 60 μg/ml, 7 hrs
  Area (2nd) second peak: (95.5)
  Area (Drug X freebase peak): 906.7
[4]; PBS with SDS, 60 μg/ml, 1 day
  Area (2nd) second peak: (87.6)
  Area (Drug X freebase peak): 867.8
[4]; PBS with SDS, 60 μg/ml, 2 days
  Area (2nd) second peak: (77.0)
  Area (Drug X freebase peak): 783.7
[4]; PBS with SDS, 60 μg/ml, 3 days
  Area (2nd) second peak: (72.3)
  Area (Drug X freebase peak): 712.2
[4]; PBS with SDS, 60 μg/ml, 4 days
  Area (2nd) second peak: (68.1)
  Area (Drug X freebase peak): 677.3
[4]; PBS with SDS, 60 μg/ml, T = 0
  Area (2nd) second peak: (73.9)
  Area (Drug X freebase peak): 929.6
[4]; PBS with SDS, 120 μg/ml, 1 hr
  Area (2nd) second peak: (223.0)
  Area (Drug X freebase peak): 1768.4
[4]; PBS with SDS, 120 μg/ml, 3 hrs
  Area (2nd) second peak: (219.47)
  Area (Drug X freebase peak): 1764.9
[4]; PBS with SDS, 120 μg/ml, 7 hrs
  Area (2nd) second peak: (212.8)
  Area (Drug X freebase peak): 1707.5
[4]; PBS with SDS, 120 μg/ml, 1 day
  Area (2nd) second peak: (189.8)
  Area (Drug X freebase peak): 1613.5
[4]; [7]
  Area (2nd) second peak: (193.9)
  Area (Drug X freebase peak): 1539.2
[4]; [8]
  Area (2nd) second peak: (167.5)
  Area (Drug X freebase peak): 1401.2
[4]; [9]
  Area (2nd) second peak: (160.3)
  Area (Drug X freebase peak): 1318.3
[4]; PBS with SDS, 120 μg/ml, T = 0
  Area (2nd) second peak: (218.0)
  Area (Drug X freebase peak): 1849.3
[4]; PBS without SDS, regardless of concentration
  HPLC peak corresponding to Drug X free base as a function of time: constantly decreasing as a function of time
[4]; Table 47, PBS with SDS, 12 μg/ml, 1 hr
  Area (Drug X freebase peak): 164.51
[4]; Table 47, PBS with SDS, 12 μg/ml, 3 hrs
  Area (Drug X freebase peak): 162.2
[4]; Table 47, PBS with SDS, 12 μg/ml, 7 hrs
  Area (Drug X freebase peak): 161.0
[4]; Table 47, PBS with SDS, 12 μg/ml, 1 day
  Area (Drug X freebase peak): 132.2
[4]; Table 47, PBS with SDS, 12 μg/ml, 2 days
  Area (Drug X freebase peak): 103.6
[4]; Table 47, PBS with SDS, 12 μg/ml, 3 days
  Area (Drug X freebase peak): 84.2
[4]; Table 47, PBS with SDS, 12 μg/ml, 4 days
  Area (Drug X freebase peak): 57.5
[4]; Table 47, PBS with SDS, 12 μg/ml, T = 0
  Area (Drug X freebase peak): 169.2
[4]; Table 47, PBS with SDS, 60 μg/ml, 1 hr
  Area (Drug X freebase peak): 897.8
[4]; Table 47, PBS with SDS, 60 μg/ml, 3 hrs
  Area (Drug X freebase peak): 875.2
[4]; Table 47, PBS with SDS, 60 μg/ml, 7 hrs
  Area (Drug X freebase peak): 850.6
[4]; Table 47, PBS with SDS, 60 μg/ml, 1 day
  Area (Drug X freebase peak): 663.9
[4]; Table 47, PBS with SDS, 60 μg/ml, 2 days
  Area (Drug X freebase peak): 511.8
[4]; Table 47, PBS with SDS, 60 μg/ml, 3 days
  Area (Drug X freebase peak): 361.7
[4]; Table 47, PBS with SDS, 60 μg/ml, 4 days
  Area (Drug X freebase peak): 303.9
[4]; Table 47, PBS with SDS, 60 μg/ml, T = 0
  Area (Drug X freebase peak): 903.4
[4]; Table 47, PBS with SDS, 120 μg/ml, 1 hr
  Area (Drug X freebase peak): 1797.8
[4]; Table 47, PBS with SDS, 120 μg/ml, 3 hrs
  Area (Drug X freebase peak): 1790.0
[4]; Table 47, PBS with SDS, 120 μg/ml, 7 hrs
  Area (Drug X freebase peak): 1687.7
[4]; Table 47, PBS with SDS, 120 μg/ml, 1 day
  Area (Drug X freebase peak): 1319.2
[4]; Table 47, PBS with SDS, 120 μg/ml, 2 days
  Area (Drug X freebase peak): 1023.1
[4]; Table 47, PBS with SDS, 120 μg/ml, 3 days
  Area (Drug X freebase peak): 722.9
[4]; Table 47, PBS with SDS, 120 μg/ml, 4 days
  Area (Drug X freebase peak): 593.4
[4]; Table 47, PBS with SDS, 120 μg/ml, T = 0
  Area (Drug X freebase peak): 1841.8
[5]; 5 mg/100 μl, cell wraps: 'Soluble, and' / 'transparent'
  Solubility EtOH: Soluble, and

## CC(C)OC(=O)[C@H](C)N[P@](=O)(CO[C@H](C)Cn1cnc2c(N)ncnc21)Oc1ccccc1.CC(C)OC(=O)[C@H](C)N[P@](=O)(CO[C@H](C)Cn1cnc2c(N)ncnc21)Oc1ccccc1.O=C(O)/C=C/C(=O)O [Drug X fumarate]
[5]; 5 mg per 100 mL or μL
  Solubility in EtOH/DMSO (50/50): Soluble, and
[5]; 5 mg per 200 mL or μL
  Solubility in DMSO/Water (50/50): Insoluble
  Solubility in Water: Insoluble

## CC(=O)O[C@H]1C(=O)[C@@]2(C)[C@H]([C@H](OC(=O)c3ccccc3)[C@]3(O)C[C@H](OC(=O)[C@H](O)[C@@H](NC(=O)c4ccccc4)c4ccccc4)C(C)=C1C3(C)C)[C@]1(OC(C)=O)CO[C@@H]1C[C@@H]2O [Paclitaxel, paclitaxel]
[1]; after 35 days
  cumulative release from the drug-loaded crosslinked copolymer: about 58 wt %
[2]; PBS
  solubility, times greater in 0.5% SDS than in 0.1% SDS: 10 times
  solubility, times greater in 0.5% SDS than in 0.1% Tween 80: 50 times
[2]
  solubility at 48 h: 106 ± 0.57 µg/mL (≈ 124 µM)
[3]; read-out: Calculated LogP
  logP: 2.7

## CC1(C)S[C@@H]2[C@H](NC(=O)Cc3ccccc3)C(=O)N2[C@H]1C(=O)O [Penicillin G, reference compound]
[6]
  Log P: 1.83
  Water solubility: water (0.21 mg/mL)
  Water solubility (words): Slightly soluble in
  pKa: 3.96

## CC(C)(C)CC(=O)OCC(=O)[C@@]12OC(C)(C)O[C@@H]1C[C@H]1[C@@H]3CCC4=CC(=O)C=C[C@]4(C)[C@@]3(F)[C@@H](O)C[C@@]12C [Triamcinolone hexacetonide, triamcinolone hexacetonide]
[1]; after 34 days
  cumulative release from the drug-loaded crosslinked copolymer: about 42 wt %
[2]
  solubility at 48 h: 37.9 ± 0.4 µg/mL (≈ 71.1 µM)
